Measurements: patent US20250064941A1, “SIGLEC LIGANDS, CONJUGATES, AND METHODS OF USE THEREOF” (Osprey Biopharmaceuticals, Inc., priority 2023, published 2025)

Tests used:
[1] = target: T1, mouse Siglec-2-Fc-Avi (CD22) (Mus musculus, UniProt P35329); experiment: SPR binding affinity to mouse CD22; conditions: steady-state analysis
T1 construct: made in house
T1 sequence (P35329 22-708 limits assumed): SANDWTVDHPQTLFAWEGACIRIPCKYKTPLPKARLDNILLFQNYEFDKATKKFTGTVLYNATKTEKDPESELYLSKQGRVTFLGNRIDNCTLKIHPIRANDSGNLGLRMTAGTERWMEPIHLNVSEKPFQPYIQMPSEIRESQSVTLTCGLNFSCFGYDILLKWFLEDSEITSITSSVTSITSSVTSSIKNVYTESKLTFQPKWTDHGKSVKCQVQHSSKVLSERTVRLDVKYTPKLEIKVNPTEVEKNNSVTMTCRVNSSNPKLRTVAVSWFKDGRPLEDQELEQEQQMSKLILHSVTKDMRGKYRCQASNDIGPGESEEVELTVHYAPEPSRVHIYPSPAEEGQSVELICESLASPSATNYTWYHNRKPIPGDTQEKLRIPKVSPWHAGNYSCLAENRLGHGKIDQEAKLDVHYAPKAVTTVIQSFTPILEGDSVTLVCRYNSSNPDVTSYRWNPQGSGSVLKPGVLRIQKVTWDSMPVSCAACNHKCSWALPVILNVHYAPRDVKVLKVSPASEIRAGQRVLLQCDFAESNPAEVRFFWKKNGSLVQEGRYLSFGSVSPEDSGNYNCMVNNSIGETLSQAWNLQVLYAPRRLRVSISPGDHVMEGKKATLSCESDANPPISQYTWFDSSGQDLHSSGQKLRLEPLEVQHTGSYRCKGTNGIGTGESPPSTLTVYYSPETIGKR
Outline: (§1)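 Using a Biacore 8K, compounds were tested against biotinylated CD22 captured after sialidase treatment. The running buffer held 1% DMSO, corrected with a 0.5–2% DMSO series. Affinity was derived by steady-state analysis.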

[2] = target: cynomolgus Siglec-2/CD22 (Macaca fascicularis, UniProt A0A2K5WCZ6); experiment: biochemical; type: binding; conditions: SPR, steady-state analysis; read-out: Affinity cyno CD22
cynomolgus Siglec-2/CD22, sequence (A0A2K5WCZ6 entry or part of it): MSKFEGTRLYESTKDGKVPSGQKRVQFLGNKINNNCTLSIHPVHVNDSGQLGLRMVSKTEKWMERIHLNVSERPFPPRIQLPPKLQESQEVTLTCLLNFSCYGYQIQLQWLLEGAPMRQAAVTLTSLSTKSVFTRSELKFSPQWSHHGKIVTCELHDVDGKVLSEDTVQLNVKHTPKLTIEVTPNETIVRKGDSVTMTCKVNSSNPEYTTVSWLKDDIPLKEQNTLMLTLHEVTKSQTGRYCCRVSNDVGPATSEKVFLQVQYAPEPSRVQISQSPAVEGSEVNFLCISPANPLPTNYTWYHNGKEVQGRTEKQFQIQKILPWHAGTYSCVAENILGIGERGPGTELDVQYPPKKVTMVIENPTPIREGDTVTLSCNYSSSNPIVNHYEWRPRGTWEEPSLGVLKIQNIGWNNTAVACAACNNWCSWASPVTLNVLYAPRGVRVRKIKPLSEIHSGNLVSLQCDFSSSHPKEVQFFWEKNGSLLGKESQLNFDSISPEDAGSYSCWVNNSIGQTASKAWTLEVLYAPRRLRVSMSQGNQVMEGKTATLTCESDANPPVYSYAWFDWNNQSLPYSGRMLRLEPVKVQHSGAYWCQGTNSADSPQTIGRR
Method: Prior to immobilization, CD22 proteins were treated with SialoExo (Genovis, Cat #G1-SM1-020) for 4 hours at 37° C. to remove native sialic acid residues.
Surface preparation for cyno CD22 protein consisted of amine coupling to Cytiva CM5 chip (Cytiva, Cat #BR100530) using the Cytiva amine coupling kit Type 2 (Cytiva, Cat #BR100633). Following the standard amine coupling protocols, EDC and NHS from the kit were mixed 1:1 and injected over flow cells 1 and 2. […] Any active carboxy groups were then capped with 1M Ethanolamine, pH 8.5 for 420s on flow cells 1 and 2.
Binding experiments of Siglec-ligand conjugated proteins or Siglec ligand compounds were performed on the surfaces prepared above in 10 mM HEPES, 150 mM NaCl, 0.05% Tween-20, pH 7.5, 1% DMSO as the running buffer. […] The compounds were then allowed to dissociate from the surface for 120 seconds. […] Solvent correction was performed using 0.5, 1, 1.5, and 2% DMSO spike into running buffer without DMSO. […] Data was analyzed using steady-state analysis in Biacore Insight Evaluation Software, version 3.0 for Siglec ligand compounds.

[3] = target: T2, human Siglec-2/CD22 protein (Homo sapiens, UniProt P20273); experiment: SPR binding affinity to human CD22; conditions: steady-state analysis
T2 construct: purchased Acro Biosystems SI2-H82E3
T2 sequence (P20273 20-847): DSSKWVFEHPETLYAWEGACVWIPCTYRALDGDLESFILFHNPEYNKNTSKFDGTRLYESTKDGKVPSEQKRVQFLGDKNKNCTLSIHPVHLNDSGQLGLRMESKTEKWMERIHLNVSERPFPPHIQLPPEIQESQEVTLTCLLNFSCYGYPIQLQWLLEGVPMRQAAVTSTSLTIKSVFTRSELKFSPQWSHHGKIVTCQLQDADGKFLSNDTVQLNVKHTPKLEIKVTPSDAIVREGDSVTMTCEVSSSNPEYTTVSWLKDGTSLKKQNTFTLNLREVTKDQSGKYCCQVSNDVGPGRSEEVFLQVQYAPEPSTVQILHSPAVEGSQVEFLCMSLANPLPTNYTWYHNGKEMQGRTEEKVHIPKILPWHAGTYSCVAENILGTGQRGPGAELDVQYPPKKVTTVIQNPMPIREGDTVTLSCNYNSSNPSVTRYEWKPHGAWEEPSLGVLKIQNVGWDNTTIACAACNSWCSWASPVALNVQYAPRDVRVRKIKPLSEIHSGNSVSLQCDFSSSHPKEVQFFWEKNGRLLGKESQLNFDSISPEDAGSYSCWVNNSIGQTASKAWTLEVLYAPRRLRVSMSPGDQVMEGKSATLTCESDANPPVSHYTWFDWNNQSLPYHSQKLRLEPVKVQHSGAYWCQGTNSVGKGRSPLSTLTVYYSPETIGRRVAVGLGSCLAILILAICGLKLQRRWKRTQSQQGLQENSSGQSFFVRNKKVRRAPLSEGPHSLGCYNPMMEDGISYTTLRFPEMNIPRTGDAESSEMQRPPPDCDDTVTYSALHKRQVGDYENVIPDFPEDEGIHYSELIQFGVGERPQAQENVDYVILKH
Outline: as §1

Row | Kd [1] [nM] | Kd [2] [nM] | Kd [3] [nM] | Compound
1 | 1000 to 10000 | < 1000 | < 1000 | CC(=O)NCCOCCOCCOCCOCCNC(=O)CCCCCCO[C@]1(C(=O)O)C[C@H](O)[C@@H](NC(=O)CO)[C@H]([C@H](O)[C@H](O)CNC(=O)Cc2ccc(Cl)cc2)O1 [Compound 264, (2R,4S,5R,6R)-6-((1R,2R)-3-(2-(4-chlorophenyl)acetamido)-1,2-dihydroxypropyl)-2-((2,19-dioxo-6,9,12,15-tetraoxa-3,18-diazapentacosan-25-yl)oxy)-4-hydroxy-5-(2-hydroxyacetamido) tetrahydro-2H-pyran-2-carboxylic acid]
2 | < 1000 | 1000 to 10000 | 1000 to 10000 | C#CCOCCOCCO[C@]1(C(=O)O)C[C@H](O)[C@@H](NC(=O)CO)[C@H]([C@H](O)[C@H](O)CNC(=O)Cc2cccc(O)c2)O1 [Compound 152, (2R,4S,5R,6R)-6-((1R,2R)-1,2-dihydroxy-3-(2-(3-hydroxyphenyl)acetamido)propyl)-4-hydroxy-5-(2-hydroxyacetamido)-2-(2-(2-(prop-2-yn-1-yloxy)ethoxy)ethoxy)tetrahydro-2H-pyran-2-carboxylic acid]
3 | 1000 to 10000 | < 1000 | < 1000 | CC(=O)NCCOCCOCCOCCOCc1cn(CCCCCCO[C@]2(C(=O)O)C[C@H](O)[C@@H](NC(=O)CO)[C@H]([C@H](O)[C@H](O)CNC(=O)Cc3ccc(C(F)F)cc3)O2)nn1 [Compound 252, (2R,4S,5R,6R)-6-((1R,2R)-3-(2-(4-(difluoromethyl)phenyl)acetamido)-1,2-dihydroxypropyl)-4-hydroxy-5-(2-hydroxyacetamido)-2-((6-(4-(15-oxo-2,5,8,11-tetraoxa-14-azahexadecyl)-1H-1,2,3-triazol-1-yl)hexyl)oxy) tetrahydro-2H-pyran-2-carboxylic acid]
4 | < 1000 | < 1000 | < 1000 | C#CCCCCCCO[C@]1(C(=O)O)C[C@H](O)[C@@H](NC(=O)CO)[C@H]([C@H](O)[C@H](O)CNC(=O)Cc2ccc(Cl)cc2)O1 [Compound 110, (2R,4S,5R,6R)-6-((1R,2R)-3-(2-(4-chlorophenyl)acetamido)-1,2-dihydroxypropyl)-4-hydroxy-5-(2-hydroxyacetamido)-2-(oct-7-yn-1-yloxy)tetrahydro-2H-pyran-2-carboxylic acid]
5 | > 10000 | 1000 to 10000 | 1000 to 10000 | C#CCOCCCCCCO[C@]1(C(=O)O)C[C@H](O)[C@@H](NC(=O)CC2CC2)[C@H]([C@H](O)[C@H](O)CNC(=O)Cc2ccc(Cl)cc2)O1 [Compound 88, (2R,4S,5R,6R)-6-((1R,2R)-3-(2-(4-chlorophenyl)acetamido)-1,2-dihydroxypropyl)-5-(2-cyclopropylacetamido)-4-hydroxy-2-((6-(prop-2-yn-1-yloxy)hexyl)oxy)tetrahydro-2H-pyran-2-carboxylic acid]
6 | 1000 to 10000 | < 1000 | 1000 to 10000 | CC(=O)NCCOCCOCCOCCOCCNC(=O)CCCCCO[C@]1(C(=O)O)C[C@H](O)[C@@H](NC(=O)CO)[C@H]([C@H](O)[C@H](O)CNC(=O)Cc2ccc(Cl)cc2)O1 [Compound 228, (2R,4S,5R,6R)-6-((1R,2R)-3-(2-(4-chlorophenyl)acetamido)-1,2-dihydroxypropyl)-2-((2,19-dioxo-6,9,12,15-tetraoxa-3,18-diazatetracosan-24-yl)oxy)-4-hydroxy-5-(2-hydroxyacetamido)tetrahydro-2H-pyran-2-carboxylic acid]
7 | 1000 to 10000 | < 1000 | < 1000 | C#CCCOc1ccc(CS[C@]2(C(=O)O)C[C@H](O)[C@@H](NC(=O)CO)[C@H]([C@H](O)[C@H](O)CNC(=O)Cc3cccc(Cl)c3)O2)cc1 [Compound 120, (2S,4S,5R,6R)-2-((4-(but-3-yn-1-yloxy)benzyl)thio)-6-((1R,2R)-3-(2-(3-chlorophenyl)acetamido)-1,2-dihydroxypropyl)-4-hydroxy-5-(2-hydroxyacetamido)tetrahydro-2H-pyran-2-carboxylic acid]
8 | 1000 to 10000 | < 1000 | < 1000 | C#CCOCCCCCCO[C@]1(C(=O)O)C[C@H](O)[C@@H](NC(=O)N(C)C)[C@H]([C@H](O)[C@H](O)CNC(=O)Cc2ccc(Cl)cc2)O1 [Compound 85, (2R,4S,5R,6R)-6-((1R,2R)-3-(2-(4-chlorophenyl)acetamido)-1,2-dihydroxypropyl)-5-(3,3-dimethylureido)-4-hydroxy-2-((6-(prop-2-yn-1-yloxy)hexyl)oxy)tetrahydro-2H-pyran-2-carboxylic acid]
9 | 1000 to 10000 | 1000 to 10000 | 1000 to 10000 | C#CCOCCOCCO[C@]1(C(=O)O)C[C@H](O)[C@@H](NC(=O)CO)[C@H]([C@H](O)[C@H](O)CNC(=O)Cc2ccc(C)cc2)O1 [Compound 175, (2R,4S,5R,6R)-6-((1R,2R)-1,2-dihydroxy-3-(2-(p-tolyl)acetamido)propyl)-4-hydroxy-5-(2-hydroxyacetamido)-2-(2-(2-(prop-2-yn-1-yloxy)ethoxy)ethoxy)tetrahydro-2H-pyran-2-carboxylic acid]
10 | < 1000 | < 1000 | < 1000 | C#CCCOc1ccc(CS[C@]2(C(=O)O)C[C@H](O)[C@@H](NC(=O)CO)[C@H]([C@H](O)[C@H](O)CNC(=O)Cc3ccc(-c4ccc(O)cc4)cc3)O2)cc1 [Compound 64, (2S,4S,5R,6R)-2-((4-(but-3-yn-1-yloxy)benzyl)thio)-6-((1R,2R)-1,2-dihydroxy-3-(2-(4′-hydroxy-[1,1′-biphenyl]-4-yl)acetamido)propyl)-4-hydroxy-5-(2-hydroxyacetamido)tetrahydro-2H-pyran-2-carboxylic acid]
11 | < 1000 | < 1000 | < 1000 | C#CCOCCCCCCO[C@]1(C(=O)O)C[C@H](O)[C@@H](NC(C)=S)[C@H]([C@H](O)[C@H](O)CNC(=O)Cc2ccc(Cl)cc2)O1 [Compound 26, (2R,4S,5R,6R)-6-((1R,2R)-3-(2-(4-chlorophenyl)acetamido)-1,2-dihydroxypropyl)-5-ethanethioamido-4-hydroxy-2-((6-(prop-2-yn-1-yloxy)hexyl)oxy)tetrahydro-2H-pyran-2-carboxylic acid]
12 | > 10000 | > 10000 | > 10000 | C#CCOCCOCCO[C@]1(C(=O)O)C[C@H](O)[C@@H](NC(=O)CO)[C@H]([C@H](O)[C@H](O)CNC(=O)c2ccccc2Cl)O1 [Compound 27, (2R,4S,5R,6R)-6-((1R,2R)-3-(2-chlorobenzamido)-1,2-dihydroxypropyl)-4-hydroxy-5-(2-hydroxyacetamido)-2-(2-(2-(prop-2-yn-1-yloxy)ethoxy)ethoxy)tetrahydro-2H-pyran-2-carboxylic acid]
